The values that follow come from patent US6808877B2, “Ligands for FPR class receptors that induce a host immune response to a pathogen or inhibit HIV infection” (priority 2000, dated 2004).

In one assay the test system is human neutrophils. The conditions noted are these: N-formylated or N-acetylated; cited from earlier work.
For assay [1], the target named is T1, FPRL1(LXA4R) (Homo sapiens, UniProt P25090).
T1 construct: host or cells: CHO cells
T1 sequence (P25090 1-351): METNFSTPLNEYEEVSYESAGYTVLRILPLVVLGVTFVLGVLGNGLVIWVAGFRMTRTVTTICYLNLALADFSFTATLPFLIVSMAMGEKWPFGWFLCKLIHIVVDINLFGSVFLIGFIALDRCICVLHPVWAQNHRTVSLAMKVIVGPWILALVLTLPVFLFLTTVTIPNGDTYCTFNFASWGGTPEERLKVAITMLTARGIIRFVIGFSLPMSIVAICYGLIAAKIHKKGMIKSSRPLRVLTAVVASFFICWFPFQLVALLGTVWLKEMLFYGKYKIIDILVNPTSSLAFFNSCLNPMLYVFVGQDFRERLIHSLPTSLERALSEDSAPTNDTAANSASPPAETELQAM
The conditions noted are these: CHO cells transfected with FPRL1(LXA4R); cited from earlier work.

The target of assay [2] is T1, FPRL1(LXA4R). The conditions noted are these: CHO cells transfected with FPRL1(LXA4R); cited from earlier work. The source holds these as a separate data set.
For another assay, the target named is T2, FPRL1 (Homo sapiens, UniProt P25090).
T2 construct: expressed in transfected cells; host or cells: HEK 293
T2 sequence (P25090 1-351): T1 sequence (P25090 1-351)
Put plainly: 3H-fMLP binding to FPRL1/293 cells. The procedure:
The cells were then washed with ice-cold PBS (phosphate buffered saline) and filtered onto Whatman discs. The radioactivity associated with the cells was measured with a β counter.
The samples were incubated under constant rotation for 30 minutes at 37° C. After incubation, the samples were filtered onto Whatman GF/C discs (Whatman International Ltd., Kent, UK) on a 12-well manifold followed by extensive washing with ice-cold phosphate-buffered saline (PBS). The discs were air-dried at 65° C., submerged in liquid scintilation cocktail, and counted for β emision.

Where no end group is shown, it is not given here.

“Met-Ile-Leu-Phe-Phe-OH (MILFF-OH) [ID; No. 2]”: in the assay with human neutrophils, the “potency in the induction of Ca2+ flux relative to fMLP” value is “more potent than parental fMLP”.
`CCCCC[C@H](O)/C=C/C=C\C=C\C=C\[C@@H](O)[C@@H](O)CCCC(=O)O` [LXA4, lipoxin A4]: the binding affinity entry at FPRL1(LXA4R) [1] was “high affinity”. Moreover, the “GTPase activity and release of esterified arachidonate” value on FPRL1(LXA4R) [2] was “increased GTPase activity and the release of esterified arachidonate”.
For the molecule `CSCC[C@H](NC=O)C(=O)N[C@@H](CC(C)C)C(=O)N[C@@H](Cc1ccccc1)C(=O)O` [^3H-fMLP], the binding to cells result at FPRL1 is recorded as “did not significantly bind”.
